We go through four substances from US20110021362A1, “AGENTS FOR STIMULATING ACTIVITY OF METHYL MODIFYING ENZYMES AND METHODS OF USE THEREOF” (CONSTELLATION PHARMACEUTICALS, priority 2009, published 2011).

One assay deals with rPRC2 (Homo sapiens, UniProt O75530+Q15910). The experiment in a line: rPRC2 methylase stimulation assay (3H-SAM, FLASHplate/TopCount). The conditions noted are these: FIG. 5, histone peptides ~1.86 μM, oligonucleosomes 14.95 nM, 45 min at 30° C. Type of assay: biochemical. The source says:
Polycomb repressive complex 2 (PRC2) is a multisubunit methylase complex that includes EZH2 (Enhancer of Zeste Homolog 2), EED, SUZ12, Rbap46, and Rbap48 subunits. Reconstituted PRC2 complexes (MW=600 kDa) were used in vitro assays to determine methylase activity in the presence of novel stimulating agents.
[…] For detection, Streptavidin FlashPlate HTS PLUS were used (High Capacity, 384 well, Perkin Elmer product # SMP410001PK).
A workflow used for high throughput assays was as follows: • 1. Preparation of assay plates using the ECHO® (Labcyte) (240 nl of DMSO or compound per well) • 2. Preparation of Mix I+II; I: 1202×15 μl; II: 1202×15.0 μl (dead volume ˜50 reactions) • Mix I • 6.0 μl 5× HMT buffer • 0.45 μl DTT 0.2M • 1.0 μl rPRC2 • 1.0 μl H3K27me3 peptide • 0.11 μl Bio/Avi-oligonuc. 1:10 • 6.44 μl water • 15.0 μl • Mix II • 1.0 μl ^3H-SAM • 14.0 μl water • 15.0 μl • 3. Adding Mix I to assay plate using the Multidrop (15 μl per well) • 4. Adding Mix II to assay plate using the Multidrop (15 μl per well) • 5. Mix content of wells in the assay plate • 6. Spin plate for 1 min at 400 RPM • 7. Incubate assay plate for 60 min at 30° C. • 8. Quench reaction by adding 30 μl of SAH [1.25 mM] to each well (mix); final conc.=568 μM • 9. […]
Stimulation of rPRC2 methylase activity was determined in the presence of unmodified H3, H3K4me3, H3K9me3, H3K27me3, H3K36me3, H3K79me3, H4K20me3, and H1.4K26me3. […]

Assay [1] has as its target recombinant Polycomb Repressive Complex 2 (rPRC2) complex, including EZH2, EED, SUZ12, RBAP46, and RBAP48 subunits (human) (UniProt Q15910). The experiment in a line: cell-based or functional assay.

rPRC2, sequence (Q15910 1-751 isoform Q15910-2): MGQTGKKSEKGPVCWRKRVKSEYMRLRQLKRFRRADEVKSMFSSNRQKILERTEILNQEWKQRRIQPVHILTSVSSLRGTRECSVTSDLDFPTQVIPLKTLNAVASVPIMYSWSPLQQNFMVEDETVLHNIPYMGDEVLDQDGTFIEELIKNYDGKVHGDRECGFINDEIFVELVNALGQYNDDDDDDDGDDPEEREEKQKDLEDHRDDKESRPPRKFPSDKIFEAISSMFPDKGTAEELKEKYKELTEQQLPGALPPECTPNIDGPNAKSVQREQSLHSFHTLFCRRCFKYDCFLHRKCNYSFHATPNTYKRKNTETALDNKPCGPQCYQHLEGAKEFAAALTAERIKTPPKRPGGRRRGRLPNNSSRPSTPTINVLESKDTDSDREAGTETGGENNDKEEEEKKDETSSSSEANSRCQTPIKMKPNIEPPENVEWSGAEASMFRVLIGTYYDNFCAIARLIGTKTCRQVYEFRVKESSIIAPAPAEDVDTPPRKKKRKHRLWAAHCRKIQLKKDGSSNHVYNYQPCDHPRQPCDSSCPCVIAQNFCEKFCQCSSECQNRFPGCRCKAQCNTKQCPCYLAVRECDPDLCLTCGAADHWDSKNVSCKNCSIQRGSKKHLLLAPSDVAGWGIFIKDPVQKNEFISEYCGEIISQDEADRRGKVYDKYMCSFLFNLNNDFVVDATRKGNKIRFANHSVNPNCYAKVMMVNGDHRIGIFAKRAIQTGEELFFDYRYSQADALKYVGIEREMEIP
rPRC2, sequence (O75530 whole entry): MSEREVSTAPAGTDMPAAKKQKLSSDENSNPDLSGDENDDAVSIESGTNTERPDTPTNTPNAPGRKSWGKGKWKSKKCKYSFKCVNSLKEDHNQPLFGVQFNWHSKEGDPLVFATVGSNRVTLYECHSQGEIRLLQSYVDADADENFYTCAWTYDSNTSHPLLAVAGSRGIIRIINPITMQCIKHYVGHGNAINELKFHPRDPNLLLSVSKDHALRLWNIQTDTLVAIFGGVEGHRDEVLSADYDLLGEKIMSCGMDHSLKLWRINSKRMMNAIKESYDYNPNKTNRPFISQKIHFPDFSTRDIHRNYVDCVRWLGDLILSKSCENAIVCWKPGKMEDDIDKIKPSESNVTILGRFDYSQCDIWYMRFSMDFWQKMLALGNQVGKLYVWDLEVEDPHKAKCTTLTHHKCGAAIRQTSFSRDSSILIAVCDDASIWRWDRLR
rPRC2, sequence (Q15022 whole entry partner): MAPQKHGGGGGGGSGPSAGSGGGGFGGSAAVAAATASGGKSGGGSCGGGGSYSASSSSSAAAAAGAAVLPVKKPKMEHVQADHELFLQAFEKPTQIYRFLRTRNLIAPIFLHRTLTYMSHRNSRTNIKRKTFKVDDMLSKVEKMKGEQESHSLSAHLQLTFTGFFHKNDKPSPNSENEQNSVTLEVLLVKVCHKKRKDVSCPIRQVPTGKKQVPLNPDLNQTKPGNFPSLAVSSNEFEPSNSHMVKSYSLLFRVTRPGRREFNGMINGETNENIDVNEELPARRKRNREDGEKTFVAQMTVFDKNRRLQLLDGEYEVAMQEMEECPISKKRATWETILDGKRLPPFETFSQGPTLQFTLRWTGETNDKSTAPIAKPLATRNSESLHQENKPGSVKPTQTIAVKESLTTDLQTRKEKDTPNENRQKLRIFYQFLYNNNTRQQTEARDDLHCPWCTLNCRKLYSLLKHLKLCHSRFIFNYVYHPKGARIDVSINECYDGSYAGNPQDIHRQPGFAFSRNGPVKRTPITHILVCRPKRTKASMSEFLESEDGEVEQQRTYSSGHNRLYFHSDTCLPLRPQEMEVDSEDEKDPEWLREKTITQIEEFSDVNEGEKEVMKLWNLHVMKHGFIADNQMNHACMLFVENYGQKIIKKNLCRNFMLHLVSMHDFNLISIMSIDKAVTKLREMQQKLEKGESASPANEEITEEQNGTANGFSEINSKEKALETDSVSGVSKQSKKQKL
rPRC2, sequence (Q16576 whole entry partner): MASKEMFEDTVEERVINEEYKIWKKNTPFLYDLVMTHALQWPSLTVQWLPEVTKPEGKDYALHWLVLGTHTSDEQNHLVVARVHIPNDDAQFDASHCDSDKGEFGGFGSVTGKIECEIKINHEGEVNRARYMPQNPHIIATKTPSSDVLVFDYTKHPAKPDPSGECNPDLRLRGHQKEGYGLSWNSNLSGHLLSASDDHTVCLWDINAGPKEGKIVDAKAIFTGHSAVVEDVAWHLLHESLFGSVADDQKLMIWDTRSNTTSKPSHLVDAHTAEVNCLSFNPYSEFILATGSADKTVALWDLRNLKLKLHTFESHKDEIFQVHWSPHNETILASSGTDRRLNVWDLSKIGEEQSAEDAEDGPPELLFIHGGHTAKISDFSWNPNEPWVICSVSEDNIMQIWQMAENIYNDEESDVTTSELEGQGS
rPRC2, sequence (Q09028 whole entry partner): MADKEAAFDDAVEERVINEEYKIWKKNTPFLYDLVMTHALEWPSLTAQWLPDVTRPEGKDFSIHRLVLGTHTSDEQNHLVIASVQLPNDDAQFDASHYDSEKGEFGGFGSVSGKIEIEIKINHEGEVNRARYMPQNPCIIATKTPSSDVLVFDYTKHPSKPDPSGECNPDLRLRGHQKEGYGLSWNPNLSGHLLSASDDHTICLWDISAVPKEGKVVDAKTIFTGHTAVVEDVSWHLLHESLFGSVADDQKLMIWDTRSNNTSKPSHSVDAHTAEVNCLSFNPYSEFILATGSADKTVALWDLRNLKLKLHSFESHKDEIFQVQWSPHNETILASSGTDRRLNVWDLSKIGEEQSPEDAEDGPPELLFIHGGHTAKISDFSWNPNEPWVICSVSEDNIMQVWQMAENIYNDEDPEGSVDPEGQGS

“ARTKQTAR[Kme3]STGGKAPRKQLA(-Biotin) [H3K9me3]”: the “stimulation of rPRC2 methylase activity toward oligonucleosomes (relative to unmodified H3)” value on rPRC2 (enzyme 12.15 nM) was “over 9 fold”.

As to Dimethylated H3K27 peptide, the stimulation of rPRC2 methylase activity toward Bio/Avi-H3 in assay [1] was found to be 6 fold.

Take Monomethylated H3K27 peptide: the stimulation of rPRC2 methylase activity toward Bio/Avi-H3 in assay [1] stood at 4 fold.

As for “VKKKAR[Kme2]SAGAAKRKASG(-Biotin) [H1.4K26me3]”, the “stimulation of rPRC2 methylase activity toward oligonucleosomes (in words)” value at rPRC2 is given as “Stimulation”.
